Measured values: ChEMBL document CHEMBL4507301 (2021)

Assays:
[1] = target: Beta-adrenergic receptor kinase 1 (Homo sapiens) (UniProt P25098); conditions: Compound concentration 1000.0 nM
[2] = target: Mitogen-activated protein kinase kinase kinase kinase 2 (Homo sapiens) (UniProt Q12851); conditions: Compound concentration 1000.0 nM
[3] = test system: Tyrosine-protein kinase ABL1 (Homo sapiens), P00519 [E255K]; conditions: Compound concentration 1000.0 nM
[4] = target: Ribosomal protein S6 kinase alpha-1 (Homo sapiens) (UniProt Q15418); conditions: Compound concentration 1000.0 nM
[5] = target: Wee1-like protein kinase (Homo sapiens) (UniProt P30291); conditions: Compound concentration 1000.0 nM
[6] = target: Serine/threonine-protein kinase PAK 5 (Homo sapiens) (UniProt Q9P286); conditions: Compound concentration 1000.0 nM
[7] = target: Cyclin-dependent kinase 19 (Homo sapiens) (UniProt Q9BWU1); conditions: Compound concentration 1000.0 nM
[8] = target: Mitogen-activated protein kinase kinase kinase 5 (Homo sapiens) (UniProt Q99683); conditions: Compound concentration 1000.0 nM
[9] = target: Transient receptor potential cation channel subfamily M member 6 (Homo sapiens) (UniProt Q9BX84); conditions: Compound concentration 1000.0 nM
[10] = target: Receptor-interacting serine/threonine-protein kinase 1 (Homo sapiens) (UniProt Q13546); conditions: Compound concentration 1000.0 nM
[11] = target: Delta-type opioid receptor (Homo sapiens) (UniProt P41143); conditions: Compound concentration 10.0 uM
[12] = target: Testis-specific serine/threonine-protein kinase 1 (Homo sapiens) (UniProt Q9BXA7); conditions: Compound concentration 1000.0 nM
Testis-specific serine/threonine-protein kinase 1 (Homo sapiens), sequence (Q9BXA7 whole entry): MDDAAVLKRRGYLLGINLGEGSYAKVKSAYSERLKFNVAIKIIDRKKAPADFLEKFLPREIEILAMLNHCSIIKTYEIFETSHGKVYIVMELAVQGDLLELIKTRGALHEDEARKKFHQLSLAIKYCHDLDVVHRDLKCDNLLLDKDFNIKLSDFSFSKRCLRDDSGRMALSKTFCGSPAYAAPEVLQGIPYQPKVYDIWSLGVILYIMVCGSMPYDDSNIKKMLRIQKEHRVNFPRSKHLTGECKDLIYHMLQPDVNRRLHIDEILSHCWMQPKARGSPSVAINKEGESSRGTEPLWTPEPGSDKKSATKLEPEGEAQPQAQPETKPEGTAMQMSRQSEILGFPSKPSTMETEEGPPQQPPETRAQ

[13] = target: Dual specificity mitogen-activated protein kinase kinase 4 (Homo sapiens) (UniProt P45985); conditions: Compound concentration 1000.0 nM
[14] = target: Activin receptor type-1B (Homo sapiens) (UniProt P36896); conditions: Compound concentration 1000.0 nM
[15] = target: Cyclin-dependent kinase 16 (Homo sapiens) (UniProt Q00536); conditions: Compound concentration 1000.0 nM
[16] = test system: Epidermal growth factor receptor (Homo sapiens), P00533 [UNDEFINED MUTATION]; conditions: Compound concentration 1000.0 nM
[17] = target: Cyclin-dependent kinase 5 (Homo sapiens) (UniProt Q00535); conditions: Compound concentration 1000.0 nM
[18] = target: Serine/threonine-protein kinase LATS1 (Homo sapiens) (UniProt O95835); conditions: Compound concentration 1000.0 nM
Serine/threonine-protein kinase LATS1 (Homo sapiens), sequence (O95835 whole entry): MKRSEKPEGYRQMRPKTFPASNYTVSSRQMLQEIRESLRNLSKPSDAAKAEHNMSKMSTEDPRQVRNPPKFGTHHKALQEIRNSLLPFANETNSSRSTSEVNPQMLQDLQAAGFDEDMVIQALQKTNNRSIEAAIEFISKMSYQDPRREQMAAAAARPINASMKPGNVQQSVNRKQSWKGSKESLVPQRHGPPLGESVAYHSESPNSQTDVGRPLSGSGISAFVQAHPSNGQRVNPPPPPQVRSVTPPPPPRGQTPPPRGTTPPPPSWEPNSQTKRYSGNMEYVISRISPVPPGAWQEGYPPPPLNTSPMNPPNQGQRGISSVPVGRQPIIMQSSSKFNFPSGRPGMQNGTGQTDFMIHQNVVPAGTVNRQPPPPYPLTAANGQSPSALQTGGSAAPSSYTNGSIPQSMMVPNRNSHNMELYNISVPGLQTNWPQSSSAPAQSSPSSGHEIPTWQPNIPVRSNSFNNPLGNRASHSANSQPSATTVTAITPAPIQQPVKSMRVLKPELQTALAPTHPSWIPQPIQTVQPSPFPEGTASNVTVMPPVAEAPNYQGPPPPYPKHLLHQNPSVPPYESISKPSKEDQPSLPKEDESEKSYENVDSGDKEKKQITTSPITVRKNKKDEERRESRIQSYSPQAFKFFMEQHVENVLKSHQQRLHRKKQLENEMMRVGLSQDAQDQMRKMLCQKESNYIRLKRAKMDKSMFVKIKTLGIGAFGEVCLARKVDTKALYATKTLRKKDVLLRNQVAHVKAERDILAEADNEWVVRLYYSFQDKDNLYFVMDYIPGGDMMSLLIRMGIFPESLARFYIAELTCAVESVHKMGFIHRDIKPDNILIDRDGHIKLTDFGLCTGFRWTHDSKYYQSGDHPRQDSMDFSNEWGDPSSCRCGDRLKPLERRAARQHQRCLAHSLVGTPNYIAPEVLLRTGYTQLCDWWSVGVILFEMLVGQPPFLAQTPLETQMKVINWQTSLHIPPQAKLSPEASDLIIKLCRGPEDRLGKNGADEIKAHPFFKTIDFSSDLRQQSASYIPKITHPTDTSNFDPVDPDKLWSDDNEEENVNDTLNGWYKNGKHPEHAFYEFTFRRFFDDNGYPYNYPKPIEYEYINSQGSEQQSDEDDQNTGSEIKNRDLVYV

[19] = target: Serine/threonine-protein kinase mTOR (Homo sapiens) (UniProt P42345); conditions: Compound concentration 1000.0 nM
[20] = test system: Phosphatidylinositol 4,5-bisphosphate 3-kinase catalytic subunit alpha isoform (Homo sapiens), P42336 [H1047L]; conditions: Compound concentration 1000.0 nM
[21] = target: ALK tyrosine kinase receptor (Homo sapiens) (UniProt Q9UM73); conditions: Compound concentration 1000.0 nM
[22] = target: Serine/threonine-protein kinase/endoribonuclease IRE1 (Homo sapiens) (UniProt O75460); conditions: Compound concentration 1000.0 nM
Serine/threonine-protein kinase/endoribonuclease IRE1 (Homo sapiens), sequence (O75460 19-977 limits assumed): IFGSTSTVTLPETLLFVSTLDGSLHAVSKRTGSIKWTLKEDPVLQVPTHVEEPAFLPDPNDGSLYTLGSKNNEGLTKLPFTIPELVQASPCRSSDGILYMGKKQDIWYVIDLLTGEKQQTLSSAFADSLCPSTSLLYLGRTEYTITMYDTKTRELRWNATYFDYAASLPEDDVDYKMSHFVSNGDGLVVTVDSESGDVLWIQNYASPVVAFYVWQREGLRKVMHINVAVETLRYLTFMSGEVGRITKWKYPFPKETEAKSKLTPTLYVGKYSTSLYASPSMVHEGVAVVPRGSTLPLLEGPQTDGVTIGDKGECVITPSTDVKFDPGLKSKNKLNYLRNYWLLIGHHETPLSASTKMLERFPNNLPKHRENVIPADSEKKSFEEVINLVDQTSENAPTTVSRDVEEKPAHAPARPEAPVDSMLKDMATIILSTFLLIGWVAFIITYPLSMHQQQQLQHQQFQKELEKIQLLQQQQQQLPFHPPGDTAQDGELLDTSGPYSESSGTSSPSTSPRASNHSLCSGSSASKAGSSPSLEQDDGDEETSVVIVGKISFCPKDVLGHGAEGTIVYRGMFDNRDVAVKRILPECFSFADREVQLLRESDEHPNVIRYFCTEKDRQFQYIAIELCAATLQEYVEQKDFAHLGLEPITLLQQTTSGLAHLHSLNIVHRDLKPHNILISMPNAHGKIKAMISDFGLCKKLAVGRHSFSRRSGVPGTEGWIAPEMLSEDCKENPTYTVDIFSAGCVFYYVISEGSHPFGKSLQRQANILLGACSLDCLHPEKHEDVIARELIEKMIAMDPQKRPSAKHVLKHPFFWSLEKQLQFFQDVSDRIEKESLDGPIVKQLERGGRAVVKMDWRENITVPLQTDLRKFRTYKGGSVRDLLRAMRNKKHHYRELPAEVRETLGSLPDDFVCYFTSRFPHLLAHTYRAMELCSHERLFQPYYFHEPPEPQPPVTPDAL

[23] = test system: Proto-oncogene tyrosine-protein kinase receptor Ret (Homo sapiens), P07949 [V804L]; conditions: Compound concentration 1000.0 nM
[24] = target: BMP-2-inducible protein kinase (Homo sapiens) (UniProt Q9NSY1); conditions: Compound concentration 1000.0 nM
[25] = target: Insulin-like growth factor 1 receptor (Homo sapiens) (UniProt P08069); conditions: Compound concentration 1000.0 nM
Insulin-like growth factor 1 receptor (Homo sapiens), sequence (P08069 31-736 limits assumed): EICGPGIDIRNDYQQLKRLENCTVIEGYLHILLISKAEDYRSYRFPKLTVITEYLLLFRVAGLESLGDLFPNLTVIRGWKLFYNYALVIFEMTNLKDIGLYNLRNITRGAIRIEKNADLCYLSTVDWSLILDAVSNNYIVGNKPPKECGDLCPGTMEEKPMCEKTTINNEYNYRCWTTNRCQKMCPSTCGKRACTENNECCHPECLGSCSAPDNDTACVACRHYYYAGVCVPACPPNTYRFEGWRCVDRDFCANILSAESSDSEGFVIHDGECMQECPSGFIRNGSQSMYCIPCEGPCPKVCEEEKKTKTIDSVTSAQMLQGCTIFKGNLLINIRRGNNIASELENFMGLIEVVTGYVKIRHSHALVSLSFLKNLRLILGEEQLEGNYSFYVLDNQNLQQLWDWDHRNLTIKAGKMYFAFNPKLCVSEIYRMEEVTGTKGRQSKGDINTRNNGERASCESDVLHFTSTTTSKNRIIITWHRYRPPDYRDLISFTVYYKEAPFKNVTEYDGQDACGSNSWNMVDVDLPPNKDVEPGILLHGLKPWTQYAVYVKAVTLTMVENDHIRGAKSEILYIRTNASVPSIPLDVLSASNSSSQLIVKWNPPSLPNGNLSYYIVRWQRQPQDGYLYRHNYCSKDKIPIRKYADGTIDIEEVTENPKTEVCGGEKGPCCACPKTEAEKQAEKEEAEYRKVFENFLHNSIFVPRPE
Insulin-like growth factor 1 receptor (Homo sapiens), sequence (P08069 741-1367 limits assumed): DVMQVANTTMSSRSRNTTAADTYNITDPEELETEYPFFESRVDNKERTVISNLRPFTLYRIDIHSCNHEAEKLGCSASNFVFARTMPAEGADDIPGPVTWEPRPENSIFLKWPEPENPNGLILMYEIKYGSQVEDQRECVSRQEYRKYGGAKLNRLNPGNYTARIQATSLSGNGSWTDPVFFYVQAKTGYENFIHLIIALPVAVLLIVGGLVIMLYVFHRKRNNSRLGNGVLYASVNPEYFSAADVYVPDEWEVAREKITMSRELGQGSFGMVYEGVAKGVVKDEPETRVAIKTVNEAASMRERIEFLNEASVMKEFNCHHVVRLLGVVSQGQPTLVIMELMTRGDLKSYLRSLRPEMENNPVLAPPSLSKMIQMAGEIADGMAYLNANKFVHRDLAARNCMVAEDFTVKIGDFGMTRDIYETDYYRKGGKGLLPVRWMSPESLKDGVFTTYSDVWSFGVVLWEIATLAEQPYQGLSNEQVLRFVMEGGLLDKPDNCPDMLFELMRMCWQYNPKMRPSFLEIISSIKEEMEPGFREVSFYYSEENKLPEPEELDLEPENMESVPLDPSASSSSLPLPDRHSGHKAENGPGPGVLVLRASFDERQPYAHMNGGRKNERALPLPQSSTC

[26] = target: Serine/threonine-protein kinase PAK 3 (Homo sapiens) (UniProt O75914); conditions: Compound concentration 1000.0 nM
[27] = target: Fibroblast growth factor receptor 3 (Homo sapiens) (UniProt P22607); conditions: Compound concentration 1000.0 nM
[28] = target: Bone morphogenetic protein receptor type-1A (Homo sapiens) (UniProt P36894); conditions: Compound concentration 1000.0 nM
[29] = target: MAP/microtubule affinity-regulating kinase 3 (Homo sapiens) (UniProt P27448); conditions: Compound concentration 1000.0 nM
[30] = target: Muscle, skeletal receptor tyrosine-protein kinase (Homo sapiens) (UniProt O15146); conditions: Compound concentration 1000.0 nM
[31] = test system: Epidermal growth factor receptor (Homo sapiens), P00533 [G719C]; conditions: Compound concentration 1000.0 nM
[32] = target: Platelet-derived growth factor receptor alpha (Homo sapiens) (UniProt P16234); conditions: Compound concentration 1000.0 nM
Platelet-derived growth factor receptor alpha (Homo sapiens), sequence (P16234 whole entry): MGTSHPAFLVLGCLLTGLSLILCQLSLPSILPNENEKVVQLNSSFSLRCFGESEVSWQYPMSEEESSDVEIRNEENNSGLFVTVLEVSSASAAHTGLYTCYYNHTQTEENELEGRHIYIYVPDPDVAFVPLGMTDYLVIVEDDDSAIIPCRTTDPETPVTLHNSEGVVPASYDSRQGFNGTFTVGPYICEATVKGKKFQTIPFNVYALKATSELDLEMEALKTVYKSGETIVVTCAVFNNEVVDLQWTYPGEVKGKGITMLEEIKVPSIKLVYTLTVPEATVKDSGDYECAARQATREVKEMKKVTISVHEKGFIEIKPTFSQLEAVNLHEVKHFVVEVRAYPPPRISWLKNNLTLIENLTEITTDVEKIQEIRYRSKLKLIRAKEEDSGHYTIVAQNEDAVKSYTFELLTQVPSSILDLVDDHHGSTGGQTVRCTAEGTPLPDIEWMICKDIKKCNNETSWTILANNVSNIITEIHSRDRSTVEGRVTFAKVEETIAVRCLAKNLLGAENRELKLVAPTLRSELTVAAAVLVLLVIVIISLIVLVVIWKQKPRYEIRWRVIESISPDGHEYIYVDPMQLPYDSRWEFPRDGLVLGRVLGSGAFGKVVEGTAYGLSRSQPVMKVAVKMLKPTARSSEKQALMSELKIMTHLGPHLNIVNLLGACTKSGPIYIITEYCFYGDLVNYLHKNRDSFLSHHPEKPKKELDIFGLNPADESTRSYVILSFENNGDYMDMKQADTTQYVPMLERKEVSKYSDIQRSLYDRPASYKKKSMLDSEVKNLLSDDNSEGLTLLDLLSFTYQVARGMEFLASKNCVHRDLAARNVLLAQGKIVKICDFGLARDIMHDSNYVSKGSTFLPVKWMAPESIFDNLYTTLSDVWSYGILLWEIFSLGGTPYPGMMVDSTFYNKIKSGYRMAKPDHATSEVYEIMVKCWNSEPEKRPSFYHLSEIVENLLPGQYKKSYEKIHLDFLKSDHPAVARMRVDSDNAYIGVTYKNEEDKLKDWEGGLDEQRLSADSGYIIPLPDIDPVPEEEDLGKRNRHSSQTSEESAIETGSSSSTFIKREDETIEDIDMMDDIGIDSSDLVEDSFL

[33] = target: Serine/threonine-protein kinase tousled-like 2 (Homo sapiens) (UniProt Q86UE8); conditions: Compound concentration 1000.0 nM
[34] = test system: Receptor-type tyrosine-protein kinase FLT3 (Homo sapiens), P36888 [UNDEFINED MUTATION]; conditions: Compound concentration 1000.0 nM
[35] = target: GABA-A receptor; anion channel (Rattus norvegicus) (UniProt O09028+P15431+P18506+P18508+P19969+P20236+P23574+P23576+P28471+P28473+P30191+P62813+P63079+P63138+Q91ZM7+Q9ES14); conditions: Compound concentration 10.0 uM
[36] = test system: Fibroblast growth factor receptor 3 (Homo sapiens), P22607 [G697C]; conditions: Compound concentration 1000.0 nM
[37] = target: Wee1-like protein kinase 2 (Homo sapiens) (UniProt P0C1S8); conditions: Compound concentration 1000.0 nM
[38] = target: 5-hydroxytryptamine receptor 1E (Homo sapiens) (UniProt P28566); conditions: Compound concentration 10.0 uM
[39] = target: Cyclin-dependent kinase-like 5 (Homo sapiens) (UniProt O76039); conditions: Compound concentration 1000.0 nM
[40] = test system: Mast/stem cell growth factor receptor Kit (Homo sapiens), P10721 [D816H]; conditions: Compound concentration 1000.0 nM
[41] = target: Phosphorylase b kinase regulatory subunit alpha, liver isoform (Homo sapiens) (UniProt P46019); conditions: Compound concentration 1000.0 nM
[42] = target: Casein kinase I isoform epsilon (Homo sapiens) (UniProt P49674); conditions: Compound concentration 1000.0 nM
[43] = target: Myosin-IIIa (Homo sapiens) (UniProt Q8NEV4); conditions: Compound concentration 1000.0 nM

C[C@H](c1cccc(C#N)c1)n1cc(Cl)cc(C(N)=O)c1=N [(R)-9s]
inactive: residual activity [1] 81% | residual activity [2] 99% | residual activity [3] 87% | residual activity [4] 97% | residual activity [5] 100% | residual activity [6] 100% | residual activity [7] 89% | residual activity [8] 85% | residual activity [9] 83% | residual activity [10] 100% | inhibition [11] -7.87% | residual activity [12] 96% | residual activity [13] 100% | residual activity [14] 100% | residual activity [15] 83% | residual activity [16] 100% | residual activity [17] 100% | residual activity [18] 74% | residual activity [19] 91% | residual activity [20] 92% | residual activity [21] 79% | residual activity [22] 69% | residual activity [23] 87% | residual activity [24] 100% | residual activity [25] 100% | residual activity [26] 88% | residual activity [27] 88% | residual activity [28] 100% | residual activity [29] 100% | residual activity [30] 100% | residual activity [31] 100% | residual activity [32] 94% | residual activity [33] 100% | residual activity [34] 100% | inhibition [35] 1.07% | residual activity [36] 100% | residual activity [37] 97% | inhibition [38] -3.17% | residual activity [39] 73% | residual activity [40] 79% | residual activity [41] 100% | residual activity [42] 99% | residual activity [43] 100%

C[C@@H](c1cccc(C#N)c1)n1cc(Cl)cc(C(N)=O)c1=N [(S)-9s]
inactive: residual activity [1] 78% | residual activity [2] 90% | residual activity [3] 82% | residual activity [4] 100% | residual activity [5] 100% | residual activity [6] 97% | residual activity [7] 100% | residual activity [8] 100% | residual activity [9] 71% | residual activity [10] 100% | inhibition [11] -3.33% | residual activity [12] 100% | residual activity [13] 82% | residual activity [14] 100% | residual activity [15] 96% | residual activity [16] 100% | residual activity [17] 92% | residual activity [18] 69% | residual activity [19] 96% | residual activity [20] 96% | residual activity [21] 83% | residual activity [22] 76% | residual activity [23] 86% | residual activity [24] 93% | residual activity [25] 96% | residual activity [26] 94% | residual activity [27] 100% | residual activity [28] 100% | residual activity [29] 98% | residual activity [30] 100% | residual activity [31] 100% | residual activity [32] 100% | residual activity [33] 100% | residual activity [34] 98% | inhibition [35] 8.14% | residual activity [36] 79% | residual activity [37] 77% | inhibition [38] -1.72% | residual activity [39] 89% | residual activity [40] 100% | residual activity [41] 100% | residual activity [42] 100% | residual activity [43] 99%
